From ChEMBL document CHEMBL5108001, “Multivalent glucosidase inhibitors based on perylene bisimide and iminosugar conjugates” (Eur J Med Chem, 2022)

Columns and labels:
[1] = system: Mus musculus; assay: Hypoglycemic activity in C57BL/6J mouse assessed as reduction in postprandial blood glucose level per DNJ unit at 0.5 to 1 mg/kg measured after 30 mins by maltose tolerance test relative to Miglitol; format: functional; settings: dose 0.5-1 mg/kg
[2] = Inhibition of alpha-glucosidase in Kunming mouse using p-nitrophenyl-alpha-glycopyranoside as substrate by Lineweaver-Burk plot analysis
[3] = Inhibition of rice alpha-glucosidase by Lineweaver-Burk plot analysis; set-up: species or system Oryza sativa
[4] = Inhibition of Aspergillus niger alpha-glucosidase by Lineweaver-Burk plot analysis
[5] = biological target: T1, Alpha-mannosidase (Canavalia ensiformis, UniProt C0HJB3); assay: Inhibition of jack bean alpha-mannosidase
T1 sequence (C0HJB3 whole entry): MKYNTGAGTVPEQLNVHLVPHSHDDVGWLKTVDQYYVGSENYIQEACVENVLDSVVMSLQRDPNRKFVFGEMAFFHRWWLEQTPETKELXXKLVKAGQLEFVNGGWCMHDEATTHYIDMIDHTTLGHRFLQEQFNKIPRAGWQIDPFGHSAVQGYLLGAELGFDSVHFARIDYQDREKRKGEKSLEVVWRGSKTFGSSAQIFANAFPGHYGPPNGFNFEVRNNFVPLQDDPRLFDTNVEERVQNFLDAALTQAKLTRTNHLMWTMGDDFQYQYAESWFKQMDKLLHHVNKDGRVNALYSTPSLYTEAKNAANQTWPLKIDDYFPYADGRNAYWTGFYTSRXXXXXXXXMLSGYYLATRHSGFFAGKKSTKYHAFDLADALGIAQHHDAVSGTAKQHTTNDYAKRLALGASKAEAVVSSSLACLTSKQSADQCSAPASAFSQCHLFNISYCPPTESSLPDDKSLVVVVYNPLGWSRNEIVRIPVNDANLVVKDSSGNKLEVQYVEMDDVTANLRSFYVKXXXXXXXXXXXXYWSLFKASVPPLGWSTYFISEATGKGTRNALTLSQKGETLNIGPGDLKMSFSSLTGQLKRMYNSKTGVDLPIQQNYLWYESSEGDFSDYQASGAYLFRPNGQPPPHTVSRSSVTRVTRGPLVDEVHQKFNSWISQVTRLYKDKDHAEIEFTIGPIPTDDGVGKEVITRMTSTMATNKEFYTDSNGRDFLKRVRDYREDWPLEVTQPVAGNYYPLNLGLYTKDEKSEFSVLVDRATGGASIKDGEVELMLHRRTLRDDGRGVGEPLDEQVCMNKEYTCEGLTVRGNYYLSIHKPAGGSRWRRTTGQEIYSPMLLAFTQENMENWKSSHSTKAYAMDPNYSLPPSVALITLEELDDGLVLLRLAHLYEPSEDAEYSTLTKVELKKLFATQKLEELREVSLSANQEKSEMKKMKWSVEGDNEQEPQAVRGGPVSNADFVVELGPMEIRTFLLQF

[6] = Cytotoxicity against human GES1 cells assessed as cell viability at 125 uM; format: toxicity, cell-based; settings: read-out: Activity
[7] = system: Mus musculus; assay: Hypoglycemic activity in C57BL/6J mouse assessed as postprandial blood glucose level at 0.5 mg/kg measured after 30 mins by maltose tolerance test (reference value: 368.49 +/-31.28 mg/dl); format: functional
[8] = system: Mus musculus; assay: Hypoglycemic activity in C57BL/6J mouse assessed as postprandial blood glucose level at 1 mg/kg measured after 30 mins by maltose tolerance test (reference value: 368.49 +/-31.28 mg/dl); format: functional; settings: 0.5 h
[9] = system: Mus musculus; assay: Hypoglycemic activity in C57BL/6J mouse assessed as postprandial blood glucose level at 2 mg/kg measured after 30 mins by maltose tolerance test (reference value: 368.49 +/-31.28 mg/dl); format: functional; settings: 0.5 h
[10] = system: Mus musculus; assay: Hypoglycemic activity in C57BL/6J mouse assessed as reduction in postprandial blood glucose level at 0.5 mg/kg measured after 15 mins by maltose tolerance test; format: functional; settings: 0.25 h
[11] = system: Mus musculus; assay: Hypoglycemic activity in C57BL/6J mouse assessed as reduction in postprandial blood glucose level at 1 mg/kg measured after 15 mins by maltose tolerance test; format: functional; settings: 0.25 h
[12] = system: Mus musculus; assay: Hypoglycemic activity in C57BL/6J mouse assessed as reduction in postprandial blood glucose level at 2 mg/kg measured after 15 mins by maltose tolerance test; format: functional; settings: 0.25 h
[13] = system: Mus musculus; assay: Hypoglycemic activity in C57BL/6J mouse assessed as reduction in postprandial blood glucose level at 0.5 mg/kg measured after 30 mins by maltose tolerance test; format: functional; settings: 0.5 h
[14] = system: Mus musculus; assay: Hypoglycemic activity in C57BL/6J mouse assessed as reduction in postprandial blood glucose level at 1 mg/kg measured after 30 mins by maltose tolerance test; format: functional; settings: 0.5 h
[15] = system: Mus musculus; assay: Hypoglycemic activity in C57BL/6J mouse assessed as reduction in postprandial blood glucose level at 2 mg/kg measured after 30 mins by maltose tolerance test; format: functional; settings: 0.5 h
[16] = system: Mus musculus; assay: Hypoglycemic activity in C57BL/6J mouse assessed as reduction in postprandial blood glucose level per DNJ nit at 0.5 to 2 mg/kg measured after 15 mins by maltose tolerance test relative to Miglitol; format: functional; settings: dose 0.5-2 mg/kg, 0.25 h
[17] = Toxicity in C57BL/6J mouse assessed as hepatic pathological changes by measuring hepatocytes distributed radially around the central veins at 2 mg/kg administered for 7 days by hematoxylin-eosin staining based analysis; format: organism-based; settings: in vivo, 168 h, time 7 day
[18] = Toxicity in C57BL/6J mouse assessed as heart pathological morphological changes at 2 mg/kg administered for 7 days by hematoxylin-eosin staining based analysis; format: organism-based; settings: in vivo, 168 h, time 7 day
[19] = Toxicity in C57BL/6J mouse assessed as spleen pathological morphological changes at 2 mg/kg administered for 7 days by hematoxylin-eosin staining based analysis; format: organism-based; settings: in vivo, 168 h, time 7 day
[20] = Toxicity in C57BL/6J mouse assessed as lungs pathological morphological changes at 2 mg/kg administered for 7 days by hematoxylin-eosin staining based analysis; format: organism-based; settings: in vivo, 168 h, time 7 day
[21] = Toxicity in C57BL/6J mouse assessed as kidneys pathological morphological changes at 2 mg/kg administered for 7 days by hematoxylin-eosin staining based analysis; format: organism-based; settings: in vivo, 168 h, time 7 day
[22] = Toxicity in C57BL/6J mouse assessed as change in body weight at 2 mg/kg administered for 7 days; format: organism-based; settings: in vivo, 168 h, time 7 day
[23] = Hepatotoxicity in C57BL/6J mouse assessed as serum AST level at 2 mg/kg administered for 7 days (reference value: 221.38 +/-23.03 U/L); format: toxicity, organism-based; settings: in vivo, 168 h, time 7 day
[24] = Hepatotoxicity in C57BL/6J mouse assessed as serum ALT level at 2 mg/kg administered for 7 days (reference value: 70.49 +/-8.78 U/L); format: toxicity, organism-based; settings: in vivo, 168 h, time 7 day
[25] = Toxicity in C57BL/6J mouse assessed as change in GLU level at 2 mg/kg administered for 7 days; format: organism-based; settings: in vivo, 168 h, time 7 day
[26] = Toxicity in C57BL/6J mouse assessed as change in CK level at 2 mg/kg administered for 7 days; format: organism-based; settings: in vivo, 168 h, time 7 day
[27] = Renal toxicity in C57BL/6J mouse assessed as blood urea level at 2 mg/kg administered for 7 days; format: organism-based; settings: in vivo, 168 h, time 7 day
[28] = Renal toxicity in C57BL/6J mouse assessed as blood uric acid level at 2 mg/kg administered for 7 days; format: organism-based; settings: in vivo, 168 h, time 7 day
[29] = Toxicity in C57BL/6J mouse assessed as change in blood cholesterol level at 2 mg/kg administered for 7 days; format: organism-based; settings: in vivo, 168 h, time 7 day
[30] = Toxicity in C57BL/6J mouse assessed as change in blood HDL level at 2 mg/kg administered for 7 days; format: organism-based; settings: in vivo, 168 h, time 7 day
[31] = Toxicity in C57BL/6J mouse assessed as change in blood triglyceride level at 2 mg/kg administered for 7 days; format: organism-based; settings: in vivo, 168 h, time 7 day
[32] = Toxicity in C57BL/6J mouse assessed as reduction in blood LDL level at 2 mg/kg administered for 7 days; format: organism-based; settings: in vivo, 168 h, time 7 day
[33] = system: Oryza sativa; assay: Potency index, ratio of Miglitol Ki to test compound Ki for inhibition of rice alpha-glucosidase measured per DNJ unit
[34] = biological target: T2, Alpha-mannosidase (Canavalia ensiformis) (UniProt C0HJB3); assay: Potency index, ratio of Miglitol Ki to test compound Ki for inhibition of jack bean alpha-mannosidase measured per DNJ unit
T2 sequence (whole entry): T1 sequence (C0HJB3 whole entry)

[35] = Hepatotoxicity in C57BL/6J mouse assessed as change in serum AST level at 2 mg/kg administered for 7 days; format: toxicity, organism-based; settings: in vivo, 168 h, time 7 day
[36] = Hepatotoxicity in C57BL/6J mouse assessed as change in serum ALP level at 2 mg/kg administered for 7 days; format: toxicity, organism-based; settings: in vivo, 168 h, time 7 day
[37] = Renal toxicity in C57BL/6J mouse assessed as change in blood urea level at 2 mg/kg administered for 7 days; format: organism-based; settings: in vivo, 168 h, time 7 day
[38] = Renal toxicity in C57BL/6J mouse assessed as change in blood uric acid level at 2 mg/kg administered for 7 days; format: organism-based; settings: in vivo, 168 h, time 7 day

Ki [2] [nM] | Ki [3] [nM] | Ki [4] [µM] | Ki [5] [nM] | Compound | fold change (FC) [1] | viability at 125 µM [6] [%] | Activity [7] [mg/dL] | Activity [8] [mg/dL] | Activity [9] [mg/dL] | inhibition in vivo at 0.5 mg/kg [10] [%] | inhibition in vivo at 1 mg/kg [11] [%] | inhibition in vivo at 2 mg/kg [12] [%] | inhibition in vivo at 0.5 mg/kg [13] [%] | inhibition in vivo at 1 mg/kg [14] [%] | inhibition in vivo at 2 mg/kg [15] [%] | fold change (FC) [16] | Activity [17] | Activity [18] | Activity [19] | Activity [20] | also measured
140 | 20 | 18.9 | 80 | O=C1c2cc(Oc3ccc(OCc4cn(CCCN5C[C@H](O)[C@@H](O)[C@H](O)[C@H]5CO)nn4)cc3)c3c4c(Oc5ccc(OCc6cn(CCCN7C[C@H](O)[C@@H](O)[C@H](O)[C@H]7CO)nn6)cc5)cc5c6c(cc(Oc7ccc(OCc8cn(CCCN9C[C@H](O)[C@@H](O)[C@H](O)[C@H]9CO)nn8)cc7)c(c7c(Oc8ccc(OCc9cn(CCCN%10C[C@H](O)[C@@H](O)[C@H](O)[C@H]%10CO)nn9)cc8)cc(c2c37)C(=O)N1Cc1cn(CCCN2C[C@H](O)[C@@H](O)[C@H](O)[C@H]2CO)nn1)c64)C(=O)N(Cc1cn(CCCN2C[C@H](O)[C@@H](O)[C@H](O)[C@H]2CO)nn1)C5=O | 2.1 | 92 | 279.6 | 243.36 | 229.32 | 24.7 | 37 | 40.4 | 24.4 | 34.6 | 37.8 | 2.1 | Non-Toxic | Non-Toxic | Non-Toxic | Non-Toxic | Activity [21]: Non-Toxic; Activity [22]: Non-Toxic; Activity [23]: 269.71 U/L; Activity [24]: 59.14 U/L; Activity [25]: Non-Toxic; Activity [26]: Non-Toxic; Activity [27]: 8.63 mmol/L; Activity [28]: 242.06 µmol/L; Activity [29]: Non-Toxic; Activity [30]: Non-Toxic; Activity [31]: Non-Toxic; Activity [32]: 0.3 mmol/L; Ratio Ki [33]: 1.5; Ratio Ki [34]: 219
– | 180 | 20.8 | – | OCCN1C[C@H](O)[C@@H](O)[C@H](O)[C@H]1CO [MIGLITOL] | – | – | 287.55 | 273.6 | 233.28 | 23.1 | 30 | 39.2 | 22 | 27.3 | 41 | – | – | – | – | – | –
310 | 10 | 8.04 | 120 | O=C1c2cc(Cl)c3c4c(Oc5ccc(OCc6cn(CCCN7C[C@H](O)[C@@H](O)[C@H](O)[C@H]7CO)nn6)cc5)cc5c6c(cc(Oc7ccc(OCc8cn(CCCN9C[C@H](O)[C@@H](O)[C@H](O)[C@H]9CO)nn8)cc7)c(c7c(Oc8ccc(OCc9cn(CCCN%10C[C@H](O)[C@@H](O)[C@H](O)[C@H]%10CO)nn9)cc8)cc(c2c37)C(=O)N1Cc1cn(CCCN2C[C@H](O)[C@@H](O)[C@H](O)[C@H]2CO)nn1)c64)C(=O)N(Cc1cn(CCCN2C[C@H](O)[C@@H](O)[C@H](O)[C@H]2CO)nn1)C5=O | 1.5 | 92 | 323.49 | 304.2 | 287.49 | 18 | 26.9 | 31.9 | 12.3 | 23.8 | – | 1.6 | Non-Toxic | Non-Toxic | Non-Toxic | Non-Toxic | Activity [21]: Non-Toxic; Activity [22]: Non-Toxic; Activity [35]: Non-Toxic; Activity [36]: Non-Toxic; Activity [25]: Non-Toxic; Activity [26]: Non-Toxic; Activity [37]: Non-Toxic; Activity [38]: Non-Toxic; Activity [29]: Non-Toxic; Activity [30]: Non-Toxic; Activity [31]: Non-Toxic; Activity [32]: 0.24 mmol/L; Ratio Ki [33]: 3.6; Ratio Ki [34]: 175
